Like-named read-outs stand apart in the source and are kept apart here. Marks after values point to notes of the source that are not given here.
Experiments:
Human BAK-∆TM-His6 (BAK) = target: T1, Human BAK-∆TM-His6 (BAK) (Homo sapiens, UniProt Q16611); assay: Liposome permeabilization assay (ANTS/DPX dye release from LUVs): activation of WT BAK by BH3 peptides;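 on AUC for Experiment-2 (Mean): traces normalized between buffer minimum and 3% CHAPS maximum fluorescence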;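 on AUC for Experiment-3 (Mean): traces normalized between buffer minimum and 3% CHAPS maximum fluorescence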; format: biochemical; parameters: AUC for Experiment-2 (Mean) / AUC for Experiment-3 (Mean) / AUC for Experiment-1 (Mean):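 traces normalized between buffer minimum and 3% CHAPS maximum fluorescence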; conditions: for AUC for Experiment-1 (Mean) / AUC for Experiment-2 (Mean) / AUC for Experiment-3 (Mean): AUC 0-88 mins of liposome permeabilization; for AUC for Experiment-1 (Mean): Experiment-1, mean of N replicates; for AUC for Experiment-2 (Mean): Experiment-2, mean of N replicates; for AUC for Experiment-3 (Mean): Experiment-3, mean of N replicates; for EC50: Fig. 4e, AUC vs peptide dose (Suppl. Fig. 6b), n = 2 experiments each of n = 3 technical replicates, read-out: EC50 LP; for EC50 / direct BAK activation compared to WT BID BH3: 50 nM BAK; for direct BAK activation compared to WT BID BH3: liposome permeabilization, Fig. 4c, e
T1 construct: C-terminus truncated recombinant human BAK containing C-terminal 6× histidine tag (MEAS-BAK); made in house; host or cells: E. coli T7 Express pLac I/Y
T1 sequence (Q16611 1-186 limits assumed): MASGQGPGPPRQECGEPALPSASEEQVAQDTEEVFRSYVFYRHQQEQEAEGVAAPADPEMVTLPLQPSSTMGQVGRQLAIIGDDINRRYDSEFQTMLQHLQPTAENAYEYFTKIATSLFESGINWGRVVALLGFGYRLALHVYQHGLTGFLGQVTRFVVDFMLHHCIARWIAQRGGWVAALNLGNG
Protocol: We performed liposome permeabilization assays as previously described[43]–[46]. […] We mixed the lipid film in ANTS/DPX solution by vortexing and sonication (~15 min) followed by extrusion through polycarbonate membrane of 2 μm pore size (Avanti Polar lipids) to generate homogenous large unilamellar vesicles (LUVs). We separated LUVs from free ANTS/DPX by S500 size exclusion chromatography and stored them at 4 °C in the dark. We prepared peptide and protein dilutions in 96-well black flat bottom plates (Costar) kept on ice. […] We quantified liposome permabilization by integrating area under curve (AUC) of normalized traces based on the Simpson’s equation, and analyzed that data in Excel and GraphPad Prism. AUC measurements reflect the kinetic and extent of liposome permeabilization and provide quantitative means for comparison between different experimental conditions (e.g., BAK mutants with gross or partial variation in activity).

GST-BAK = target: T2, GST-BAK (Homo sapiens, UniProt Q16611); assay: Competitive fluorescence polarization assay (displacement of BID BH3 SAHB-F); format: binding
T2 construct: made in house
T2 sequence (Q16611 1-211): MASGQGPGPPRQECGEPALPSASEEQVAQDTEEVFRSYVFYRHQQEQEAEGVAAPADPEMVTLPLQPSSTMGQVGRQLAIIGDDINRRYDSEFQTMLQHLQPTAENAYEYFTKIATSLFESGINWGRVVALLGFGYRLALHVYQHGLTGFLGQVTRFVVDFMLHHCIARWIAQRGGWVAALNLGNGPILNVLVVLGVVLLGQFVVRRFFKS
Source text: We also tested the monosubstituted peptides in competitive fluorescence polarization (FP) binding assays, which measure displacement from GST-BAK of BID BH3 stabilized alpha helix of BCL-2 proteins (SAHB) C-terminally tagged with fluorescein and thus informs on peptide binding affinity.
We carried out fluorescence polarization assays, measuring the displacement of the fluorescent peptide BID BH3 SAHB-F from GST-BAK, in 384-well Greiner black polystyrene plates with flat bottom (Sigma-Aldrich). Master mix consisted of 50 mM Tris-HCl pH 7.5, 50 mM KCl, 0.1 mg/mL BSA, 2 mM DTT, 0.005% Tween-20, 10 nM BID BH3 SAHB-F, and 1 µM GST-BAK. We pin transferred peptides using Biomek FX (Beckman Coulter Life Sciences, IN) to achieve final concentration of 500−0.2 µM in 20 µL final volume. We gently centrifuged plates to remove air bubbles for 1 min at 1000 rpm, and incubated them for 60 min at RT. […] Free peptide controls in each plate consisted of only BID BH3 SAHB-F and bound peptide controls containing BID BH3 SAHB-F + GST-BAK. We derived Z’-values using the equation [1 − 3(stdev^L + stdev^H)]/(average^H − average^L), where L is the free peptide control and H is the bound peptide control. […] We processed and visualized data using the software Robust Investigation of Screening Experiments (RISE) developed in house in the Pipeline Pilot platform (Accelrys, v.8.5.0). We performed at least three independent dose-response experiments for each peptide. We estimated IC50 values in RISE and GraphPad Prism v.8.0a.

[1] = competitive FP, mean of the experiments (replicated 4-9 times), read-out: IC50 Mean
[2] = displacement of 10 nM BID BH3 SAHB-fluorescein from 1 µM GST-BAK, peptide 500−0.2 µM, 60 min RT, mean ± SD, n = 9 experiments, read-out: IC50 FP

AUC for Experiment-1 (Mean) (Human BAK-∆TM-His6 (BAK); 1 μM peptide + 50 nM BAK) | AUC for Experiment-2 (Mean) (Human BAK-∆TM-His6 (BAK); 1 μM peptide + 50 nM BAK) | AUC for Experiment-3 (Mean) (Human BAK-∆TM-His6 (BAK); 1 μM peptide + 50 nM BAK) | AUC for Experiment-1 (Mean) (Human BAK-∆TM-His6 (BAK); 50 μM peptide + 50 nM BAK) | AUC for Experiment-2 (Mean) (Human BAK-∆TM-His6 (BAK); 50 μM peptide + 50 nM BAK) | AUC for Experiment-3 (Mean) (Human BAK-∆TM-His6 (BAK); 50 μM peptide + 50 nM BAK) | EC50 (Human BAK-∆TM-His6 (BAK)) | IC50 (GST-BAK; competitive FP, Experiment-1) | IC50 (GST-BAK; competitive FP, Experiment-2) | IC50 (GST-BAK; competitive FP, Experiment-3) | IC50 (GST-BAK; competitive FP, Experiment-4) | IC50 (GST-BAK; competitive FP, Experiment-5) | IC50 (GST-BAK; competitive FP, Experiment-6) | IC50 (GST-BAK; competitive FP, Experiment-7) | IC50 (GST-BAK; competitive FP, Experiment-8) | IC50 (GST-BAK; competitive FP, Experiment-9) | IC50 (GST-BAK; [1]) | IC50 (GST-BAK; [2]) | Compound | direct BAK activation compared to WT BID BH3 (Human BAK-∆TM-His6 (BAK))
15.613 | 13.293 | 17.537 | 10.056 | 8.1041 | 9.4463 | 0.11 ± 0.0577 µM | 10.88 µM | 9.859 µM | 9.959 µM | 6.417 µM | 8.231 µM | 7.397 µM | 10.36 µM | 8.244 µM | 7.774 µM | 8.8 µM | – | CC[C@H](C)[C@H](NC(=O)[C@H](CC(N)=O)NC(=O)[C@H](CCCNC(=N)N)NC(=O)[C@@H](NC(=O)[C@@H](NC(=O)[C@H](CC(=O)O)NC(=O)[C@H](CCC(=O)O)NC(C)=O)[C@@H](C)CC)[C@@H](C)CC)C(=O)N[C@@H](C)C(=O)N[C@@H](CCCNC(=N)N)C(=O)N[C@@H](Cc1c[nH]cn1)C(=O)N[C@@H](CC(C)C)C(=O)N[C@@H](C)C(=O)N[C@@H](CCC(N)=O)C(=O)N[C@H](C(=O)NCC(=O)N[C@@H](CC(=O)O)C(=O)N[C@@H](CO)C(=O)N[C@@H](CCSC)C(=O)N[C@@H](CC(=O)O)C(=O)N[C@@H](CCCNC(=N)N)C(=O)N[C@@H](CO)C(=O)N[C@@H](Cc1c[nH]c2ccccc12)C(N)=O)C(C)C [W(5)] | –
18.713 | 17.421 | 16.388 | 17.267 | 18.39 | 17.889 | 0.11 ± 0.0161 µM | – | – | – | – | – | – | – | – | – | – | 11.3 ± 3.9 µM | Ac-EDIIRNIARHLAQFGDSMDRSI-NH2 [F(3)] | gain in direct BAK activation compared to WT BID BH3
20.936 | 21.86 | 19.004 | 18.852 | 17.743 | 12.625 | 0.114 ± 0.0225 µM | 5.395 µM | 4.243 µM | 5.717 µM | 4.044 µM | 4.59 µM | 4.39 µM | 3.925 µM | 4.319 µM | 4.861 µM | 4.6 µM | – | Ac-EDIIRNIARHLAQMGDSMDRSI-NH2 [M(3)] | gain in direct BAK activation compared to WT BID BH3
9.5438 | 9.663 | 8.9802 | 10.729 | 10.153 | 6.338 | 0.229 ± 0.0111 µM | – | – | – | – | – | – | – | – | – | – | 11.9 ± 3.7 µM | Ac-EDIIRNIARHLAQVGDSFDRSI-NH2 [F(4)] | less direct BAK activation compared to WT BID BH3
16.565 | 21.49 | 16.942 | 21.822 | 26.263 | 21.192 | 0.264 ± 0.0091 µM | – | – | – | – | – | – | – | – | – | – | 11.5 ± 7.5 µM | Ac-EDIIRNIARHLAQVGDSWDRSI-NH2 [W(4)] | gain in direct BAK activation compared to WT BID BH3
22.669 | 26.226 | 23.05 | 21.941 | 27.175 | 24.539 | 0.213 ± 0.0082 µM | – | – | – | – | – | – | – | – | – | – | 6.9 ± 5 µM | Ac-EDIIRNIARHLAQVGDSYDRSI-NH2 [Y(4)] | gain in direct BAK activation compared to WT BID BH3
14.061 | 9.0873 | 8.9347 | 8.5044 | 6.7192 | 7.8089 | 0.163 ± 0.0053 µM | 7.12 µM | 5.471 µM | 7.795 µM | 5.632 µM | 5.62 µM | 7.05 µM | 5.661 µM | 7.109 µM | 8.02 µM | 6.6 µM | – | Ac-EDIIRNIARHLAQWGDSMDRSI-NH2 [W(3)] | less direct BAK activation compared to WT BID BH3
14.1 | 10.652 | 12.187 | 18.672 | 10.496 | 13.717 | 0.372 ± 0.116 µM | – | – | – | – | – | – | – | – | – | – | 6.2 ± 1.5 µM | Ac-EDIIRNIARHLAQYGDSMDRSI-NH2 [Y(3)] | –
15.025 | 10.6297 | 8.405 | 12.2448 | 5.78* | 12.8163 | 0.242 ± 0.0663 µM | – | – | – | – | – | – | – | – | – | – | 27.4 ± 16.4 µM | Ac-EDIWRNIARHLAQVGDSMDRSI-NH2 [W(0')] | –
14.3256 | 13.2515 | 14.8765 | 13.3871 | 11.7489 | 12.1647 | 0.365 ± 0.0228 µM | – | – | – | – | – | – | – | – | – | – | 10.8 ± 5.5 µM | Ac-EDWIRNIARHLAQVGDSMDRSI-NH2 [W(0)] | –
